Assay [1] in a line: Attenuation of excessive sweating / hyperhidrosis (summary statements). Format: in vivo.
In assay [2] the test system is permeabilized chromaffin cells. The assay is described as follows: Inhibition of calcium-induced release of catecholamines in digitonin-permeabilized chromaffin cells. Format: cell-based. As to conditions: 1 mM peptide. The source says:
The neuronal-exocytosis (neurosecretion) inhibiting capabilities of the known neuronal exocytosis inhibitors became evident through a test that evaluates the strength of said compounds in inhibiting the release of catecholamines induced by calcium in chromaffin cells permeabilized with the detergent digitonin, in accordance with the method described by Gutiérrez et al. (FEBS Lett 1995, 372, 39-43, and J. Biol. Chem. 1997, 272, 2634-2639); as well as an in vitro reconstitution test of the fusion complex (SNARE).
Briefly, the chromaffin cell cultures are incubated with [3 H]-epinephrine and [3 H]-norepinephrine, are permeabilized with 20 μM digitonin, and stimulated with calcium (10 μM), in the presence of the compounds to be tested, and the amount of radioactivity released by the cells to the extracellular medium, which is a reflection of the exocytosis of [3 H]-epinephrine and [3 H]-norepinephrine, is measured.

Assay [3] relates to fusion protein complex (SNARE). The experiment in a line: In vitro reconstitution (ELISA) of the fusion protein complex (SNARE). Format: biochemical. As to conditions: peptide present during the assembly of the fusion complex. On the procedure: An additional test of in vitro reconstitution was performed to determine the ability of the peptides to interfere with the formation and stability of the fusion complex (SNARE). The test consists of evaluating the in vitro reconstitution of the fusion protein complex with recombinant proteins produced in Escherichia coli. The reconstitution tests, based on ELISA (Enzyme-Linked Immuno Assay) methods, involve the immobilization of protein SNAP-25 in 96-well plates and the subsequent formation of the fusion protein complex by adding the proteins VAMP and syntaxin in the presence and/or absence of the peptides of the invention. The detection of the complex was performed using an antibody against protein syntaxin (anti-syntaxin), followed by an antibody which recognizes the anti-syntaxin antibody, covalently tagged with a peroxidase. The amount of fusion protein complex was tracked by adding 1,2-phenylenediamine dichloride, whose reaction with the peroxidase produces a product with an orangish-yellow color that absorbs 492 nm in an acid medium.

No end group written: not given here.

As to `CCCCCCCCC(=O)OCC(=O)NCc1cc(OC)c(O)cc1I` [Calmpasin®, 2-((4-hydroxy-2-iodo-5-methoxybenzyl)amino)-2-oxoethyl nonanoate], in assay [1] (0.1-0.01%), the “attenuation of excessive sweating” value is listed as “unable to attenuate excessive sweating”.
On to “Ac-Glu-Glu-Met-Gln-Arg-Arg (Ac-EEMQRR) [Argireline®, acetyl-hexapeptide commercialized under the tradename Argireline® by Lipotec, S. A]”, for which the “attenuation of hyperhidrosis and excessive sweating” value in assay [1] (formulation containing 0.5-1.0% Argireline) is “modest effect”.
Regarding “SEQ. ID NO. 1: peptide from the amino end of SNAP-25; 6 amino acid peptide whose acetylated derivative is Argireline (EEMQRR)”, the “inhibition of the release of catecholamines” value in assay [2] was “approximately 20%”. For the same molecule, the “amount of fusion complex (SNARE) formed in presence of peptide” value in assay [3] is on record as “significant decrease”.
On to “SEQ. ID NO. 2: peptide from the amino end of SNAP-25 (ELEEMQRRADQLA)”, for which, in assay [2], the “inhibition of the release of catecholamines” value is “approximately 35%”. Further, in assay [3], the “amount of fusion complex (SNARE) formed in presence of peptide” value is on record as “significant decrease”.
